These results are taken from patent US7056863B1, “Synergistic herbicidal compositions herbicides from the group of the hydroxyphenylpyruvate dioxygenase inhibitors” (Aventis CropScience GmbH, priority 1999, dated 2006).

One series has as its system KCHSC (Kochia scoparia). Kind of series: Outdoor plot trial, post-emergence treatment, visual evaluation of herbicidal activity. Type of series: in vivo. The note with it: Example B.I, outdoors. The protocol: (§1) Outdoors, crop plants were grown on plots of a size of from 5 to 10 m^2 on various soils and under various climatic conditions, and the natural presence of harmful plants and/or their seeds in the soil was utilized for the experiments. The treatment with the compositions according to the invention or the herbicides A) and B) applied individually was carried out after emergence of the harmful and the crop plants, in general at the 2- to 4-leaf stage. The active compounds or active compound combinations, formulated as WG, WP or EC, was carried out by the post-emergence method. After 2 to 8 weeks, visual evaluation was carried out in comparison with an untreated comparative group. […] In addition, the herbicidal activities of the compositions according to the invention exceed the expected values according to Colby.
(§2) If the observed activity values of the mixtures already exceed the formal sum of the values for the trials with individual applications, they also exceed the expected value according to Colby which is calculated using the following formula (cf. S. R. Colby; in Weeds 15 (1967) pp. 20 to 22):
(§3) The figures denote: • A, B=Activity of Components A and B in percent, at a dosage of a and b gram of ai/ha, respectively. • E=Expected value in % at a dosage of a+b gram of ai/ha.

Series [1] concerns POROL (Portulaca oleracea). The description is as above. Type of series: in vivo. The note with it: outdoors. The protocol:
as §1, §2, §3

Another series has as its system TRZDU (Triticum davam). Kind of series: Outdoor plot trial, post-emergence treatment, damage to crop plant. As to conditions: in vivo. As for the experimental part:
as §1

Series [2] has as its system PHBPU (Pharbitis purpurea). Briefly: Outdoor plot trial, post-emergence treatment, visual evaluation of herbicidal activity. It is filed as in vivo. As to conditions: outdoors. As for the experimental part: as §1, §2, §3
Series [3] deals with CHEAL (Chenopodium album). The description is as above. Type of series: in vivo. The note with it: outdoors. As for the experimental part:
as §1, §2, §3

Another series deals with HORVS (Hordeum vulgaris). Briefly: Outdoor plot trial, post-emergence treatment, damage to crop plant. Type of series: in vivo. As to conditions: Example B.VI, 100 g of ai/ha. As for the experimental part: as §1
The test system of another series is BRAPL. Briefly: Outdoor plot trial, post-emergence treatment, visual evaluation of herbicidal activity. Type of series: in vivo. The note with it: Example B.VII, 300 g of ai/ha, outdoors. The protocol: as §1, §2, §3
A further series concerns ZEAMX (Zea mays). Briefly: Outdoor plot trial, post-emergence treatment, damage to crop plant. It is filed as in vivo. As to conditions: Example B.VII, 300 g of ai/ha. As for the experimental part:
as §1

For `CS(=O)(=O)c1ccc(C(=O)C2C(=O)CCCC2=O)c(Cl)c1C1=NOCC1` [Compound A1], the KCHSC found in the series on KCHSC (Kochia scoparia) (25 g of ai/ha) was 28%.
For the molecule `COC(=O)c1ccc(I)cc1S(=O)(=O)[N-]C(=O)Nc1nc(C)nc(OC)n1.[Na+]` [Compound B4], the POROL found in series [1] (Example B.VIII, 2.5 g of ai/ha) is given as 20%. In addition, in the series with TRZDU (Triticum davam), the TRZDU found was found to be 15%.
For `Cc1cc(C(=O)C2C(=O)CCCC2=O)c(C)c2c1S(=O)(=O)CCC2Oc1ncccn1` (stereo not shown) [Compound A2], in series [1] (Example B.V, 100 g of ai/ha), the POROL found stood at 0%. In addition, the PHBPU found stood at 65% in series [2] (Example B.II, 50 g of ai/ha) and 45% in series [2] (Example B.III, 100 g of ai/ha). Moreover, the CHEAL found in series [3] (Example B.IV, 100 g of ai/ha) is reported as 34%.
With `CS(=O)(=O)c1ccc(C(=O)C2C(=O)CCCC2=O)c(Cl)c1COCC(F)(F)F` [Compound A4], in series [1] (Example B.VIII, 25 g of ai/ha), the POROL found is recorded as 5%. In addition, in the series on TRZDU (Triticum davam), the TRZDU found is listed as 5%.
With `CC(C)(F)c1nc(N)nc(NC(CCc2ccccc2)C2CCC2)n1` (stereo not shown) [Compound B3], in series [3] (Example B.VI, 100 g of ai/ha), the CHEAL found is 30%. Besides, the HORVS found in the series on HORVS (Hordeum vulgaris) stood at 0%.
Turning to `COc1cc(OC)nc(NC(=O)NS(=O)(=O)c2ccc(NC=O)cc2C(=O)N(C)C)n1` [Compound B1], the POROL found in series [1] (Example B.V, 30 g of ai/ha) is reported as 43%. Further, the PHBPU found in series [2] (Example B.II, 30 g of ai/ha) is recorded as 20%. In addition, the figures for the KCHSC found with KCHSC (Kochia scoparia) (30 g of ai/ha) and in the series with KCHSC (Kochia scoparia) (60 g of ai/ha) were 30% and 33%, respectively.
Regarding `CP(=O)(O)CCC(N)C(=O)O` (stereo not shown) [Compound B2, glufosinate], the PHBPU found in series [2] (Example B.III, 500 g of ai/ha) was 43%. For the same molecule, the CHEAL found in series [3] (Example B.IV, 500 g of ai/ha) is 60%.
`N#Cc1cc(Br)c(O)c(Br)c1` [Compound B5, bromoxynil]: the BRAPL found in the series with BRAPL was 0%. For the same molecule, in the series on ZEAMX (Zea mays), the ZEAMX found is given as 0%.
